US20180002319A1, “MACROCYCLIC PICOLINAMIDE COMPOUNDS WITH FUNGICIDAL ACTIVITY” (DOW AGROSCIENCES LLC, priority 2014, published 2018)
Where two headings read alike, the source gives them in different places.

Key:
Puccinia triticina = test: Wheat Brown Rust (PUCCRT) fungicidal activity; assay type: in vivo; conditions: High Volume application, 100 ppm
In short: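 Disease severity (0–100%) on first leaves compared with untreated plants gives percent control. Plants (wheat var. Yuma) received spore inoculum before or after run-off spraying with compound in acetone/Triton X-100 water, held overnight at 22° C, 100% RH, then in a 24° C greenhouse.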

Zymoseptoria tritici = test: Leaf Blotch of Wheat (SEPTTR) fungicidal activity; assay type: in vivo
In short: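 Wheat seedlings (Yuma, first leaf emerged) were sprayed to run-off with compound in acetone/water containing Triton X-100 and inoculated with Z. tritici spores before or after treatment. Percent disease control comes from 0–100% severity on treated versus untreated plants.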

[1] = 24 h, 1 day protectant, read-out: PUCCRT disease control, 1DP (1 Day Protectant)
[2] = 72 h, 3 day curative, read-out: PUCCRT disease control, 3DC (3 Day Curative)
[3] = 24 h, High Volume application, 100 ppm, wheat leaf blotch, 1 day protectant, read-out: SEPTTR disease control, 1DP (1 Day Protectant)
[4] = 72 h, High Volume application, 100 ppm, wheat leaf blotch, 3 day curative, read-out: SEPTTR disease control, 3DC (3 Day Curative)

melting point [°C]	Compound	pest or weed control at 100 ppm (Puccinia triticina; [1]) [%]	pest or weed control at 100 ppm (Puccinia triticina; [2]) [%]	pest or weed control at 100 ppm (Zymoseptoria tritici; [3]) [%]	pest or weed control at 100 ppm (Zymoseptoria tritici; [4]) [%]	pest or weed control at 100 ppm (Zymoseptoria tritici; 24 h, read-out: SEPTTR disease control, 1DP (1 Day Protectant)) [%]	pest or weed control at 100 ppm (Zymoseptoria tritici; 72 h, read-out: SEPTTR disease control, 3DC (3 Day Curative)) [%]
57 to 62	COc1ccnc(C(=O)N[C@H]2COCCC[C@@H](CCC(C)C)[C@H](C)OC2=O)c1OC(C)=O [Compound 39]	> 80	> 80	> 80	> 80		
197 to 198	COc1ccnc(C(=O)N[C@H]2CCOC[C@H](Cc3ccccc3)[C@@H](OCC(C)C)[C@H](C)OC2=O)c1O [Compound 95]	> 80	< 80	> 80	< 80		
	CCC[C@H]1CCCC[C@H](NC(=O)c2nccc(OC)c2O)C(=O)O[C@@H](C)[C@@H]1OCC(C)C [compound 105, 3-hydroxy-N-((3S,8S,9R,10S)-9-isobutoxy-10-methyl-2-oxo-8-propyloxecan-3-yl)-4-methoxypicolinamide]	< 80	< 80			< 80	< 80
